# Test results: patent publication US6630177B1, “Products extracted from a plant of the genus Commiphora, particularly the Commiphora mukul plant, extracts containing same and applications thereof, for example in cosmetics” (Parfums Christian Dior, priority 1995, dated 2003)
# Entries after “also recorded” stand apart in the source; their conditions may differ.
# What was measured:
# 3T3 F442A = experiment: Determination of the glycero-3-phosphate dehydrogenase (G3PDH) activity in treated fibroblast (preadipocyte) cultures; format: cell-based, murine; conditions: for Rate of conversion of NADH: 3T3 F442A cultures treated at 5 μg/ml on D+5, D+7, D+9, G3PDH assayed on D+12, mean of three experiments; for Activity A1 (stimulation of G3PDH activity versus control cultures): 3T3 F442A cultures, calculated from Vp and Vt
# Text: The cells used are 3T3 F442A, which constitute a line of murine preadipocytes selected for their ability to convert to adipocytes if the culture conditions allow, in accordance with the method of Green, H. & Kehinde, C., Cell 1 (1974) 113.
# The aim was to measure the expression of two differentiation markers, namely glycero-3-phosphate dehydrogenase (G3PDH) on the one hand and cyclic AMP (cAMP) on the other.
# It is pointed out here that the enzyme G3PDH allows the formation, in the fibroblast, of glycerol 3-phosphate, a molecule which is subsequently involved in the synthesis of the intracellular lipids (triglycerides). Thus an increase in the activity of the G3PDH is directly linked to an increase in this synthesis.
# The fibroblasts are inoculated at the bottom of Petri dishes of diameter 35 mm in Dulbecco's Modified Eagle's Medium (DMEM), in the presence of 5% of calf serum (CS) and 5% of fetal calf serum (FCS). Each experiment is performed in triplicate.
# During the treatment phase, the medium consists of DMEM+10% of fetal calf serum.
# The product or extract according to the invention is dissolved in ethanol and used on the cultures at a final concentration of 5 μg/ml.
# On day D+5: treatment with resin of Commiphora mukul (extract G), FIIB1 or IIa or IIb at 5 μg/ml in DMEM, 10% FCS
# On days D+7 and D+9: treatment identical to that performed on D+5
# On day D+12: grinding of the cells for assay of G3PDH.
# The cellular monolayer is recovered by scraping and vigorously homogenized in TRIS-HCl buffer (25 mM, pH 7.4), 1 mM EDTA, at 4° C. The G3PDH activity is determined on the supernatant of the ground cellular material immediately after centrifugation.
# It is possible to calculate an absorption difference (ΔAbs)/min, which corresponds to the initial rate of the enzymatic reaction.
# The results are expressed in terms of specific activity, i.e. in nmol of NADH converted/min/mg of cellular proteins (the total cellular protein content is evaluated by the method of BCA—PIERCE: protein assay reagent).
# The activity Al of the products according to the invention on stimulation of the activity of this enzyme is calculated according to the following formula: [formula]
# Vp is the mean value, over the three experiments, of the rate of conversion of NADH, expressed in nmol/min/mg of cellular proteins, in the cultures treated with the products according to the invention,
# Vt is the mean value of this rate in the control cultures.
# fibroblasts in culture = experiment: Lipogenic activity of the fractions on fibroblasts in culture; format: cell-based; conditions: result in words
# Method: In a first step, the extract G is subjected to a series of fractionations by high performance liquid chromatography. Each fraction is tested for its lipogenic activity on fibroblasts in culture using the method explained below. These different fractionations ultimately yield an active fraction, FIIB, whose characteristic peaks are identified on the chromatogram.
Structure (SMILES),Rate of conversion of NADH (3T3 F442A),Activity A1 (stimulation of G3PDH activity versus control cultures) (3T3 F442A; 5 μg/ml) [%],Lipogenic activity (fibroblasts in culture),"Increase of the activity of the enzyme G3PDH compared with control cultures (3T3 F442A; fibroblast cultures, 5 μg/ml) [fold]"
"C/C(=C\CC/C(C)=C/CC/C(C)=C/CC[C@@H]1[C@@]2(C)CCC(=O)C(C)(C)[C@@H]2CC[C@@]1(C)O)CO [IIa, (5R, 10S,8R,9R)-3-oxopolypoda-13E,17E,21E-triene-8,30-diol]",222 ± 88 nmol/min/mg of proteins,348,give the best results; also recorded: substantially equivalent,
"C/C(=C\CC/C(C)=C/CC[C@@H]1[C@@]2(C)CCC(=O)C(C)(C)[C@@H]2CC[C@@]1(C)O)CC/C=C(\C)C(=O)O [IIb, (5R,10S,8R,9R)-8-hydroxy-3-oxopolypoda-13E,17E,21 E-trien-30-oic acid]",352 ± 62 nmol/min/mg of proteins,610,give the best results; also recorded: substantially equivalent,7
